From US7119208B2, “Anti-sickling agents” (Virginia Commonwealth University, priority 2003, dated 2006)
Several values for one entry are separate records, joined by “and”; a condition that tells them apart may be missing. Equal values may be shown once. Entries after “also recorded” stand apart in the source; their conditions may differ.

Tests used:
AA cells = test: Oxygen equilibrium studies with normal whole blood; type: cell-based, human; conditions: for n50 (Hill coefficient at 50% saturation in the presence of compound) / ΔP50 = P50d − P50c / P50d (value in the presence of compound): thiophene aldehydes, 5 mM, whole blood; for P50d (value in the presence of compound): repeat measurements; for P50: AA cells 40% hematocrit; for effect on the OEC of whole blood: normal adult whole blood, multi-point tonometry, in vitro
SS cells [1] = test: Antisickling studies with homozygous sickle red blood cells; type: cell-based, human; conditions: for predicted antisickling activities: not determined, predicted from structure-activity relationships
HbS [2] = target: T1, HbS (Homo sapiens, UniProt P68871+P69905, E7V); test: Oxygen equilibrium analysis of hemolysate from compound-treated SS cells; type: cell-based; conditions: hemolysate after incubation of 5 mM compound with SS cells; for Hemolysate ΔP50: treated minus control
T1 construct: The compound-treated SS cells obtained in the preceding experiment (oxygen equilibrium studies with SS cells) were hemolyzed; endogenous in cells; host or cells: homozygous sickle red blood (SS) cells from patients with SCD; hemolysate of the compound-treated cells

SS cells [3] = test: Antisickling studies with homozygous sickle red blood cells; type: cell-based, human; conditions: for inhibition at 5000 µM: Homo sapiens, Erythrocyte, read-out: Inhibition of sickling of SS cells
Experimental: Briefly, SS cells suspended in buffered saline solution, pH 7.4 (hematocrit of 10 %) were incubated at 37° C. with 4% oxygen in the presence of 5 mM compound. Aliquots (10 ul) of the suspensions were obtained after 5 hrs and fixed with 2% glutaraldehyde solution without exposure to air. Morphological analysis and percentage of SS cells that were not sickled were conducted using a computer-assisted image analysis system as described elsewhere (Hijiya, 1991).

Hb [4] = target: T2, Hb (Homo sapiens, UniProt P69905); test: Co-crystallization of compounds with Hb, X-ray crystallography; type: binding; design: Purified human adult Hb in 50 mM Bis Tris buffer, pH 6.8, was prepared from discarded human blood; from tissue; host or cells: discarded human blood; Hb purified in house as in Safo and Abraham, 2003; conditions: deoxy Hb
Tg sickle mice = test: In vivo antisickling effect in transgenic sickle mice exposed to hypoxia; conditions: 5% oxygen
Description: In vivo antisickling effect of 5-HMF was investigated using transgenic (Tg) mice that produce human Hb S. Since the blood of wild type mice has an extremely right-shifted OEC (P50 of mouse blood: 40–44 mm Hg) as compared with the OEC of human blood (P50 of AA cells: 26.5 mm Hg; SS cells: 32 mm Hg), Tg sickle mice that produce approximately equal amounts of human and mouse […] and 100% human β^s-globin were used in this study. The P50 of these mice are between 26 and 34 mm Hg depending on the percentage of mouse β-globin. We used 5% oxygen (5% O2, 95% N2), because they develop pulmonary sequestration almost exclusively upon exposure of these mice to 5% O2. […] Upon exposure to hypoxia, we determine the percentage of sickled cells in the blood as well as the survival time. […] In the hypoxia experiments, the Tg sickle mice were exposed to hypoxia for up to 1 hr; any surviving mice at 1 hr were euthanized by cervical dislocation under anesthesia. In all cases, after the mouse died, it was immediately dissected. The heart, lungs, brain, liver, spleen, and kidneys were fixed in 10% phosphate-buffered formalin. Tissue samples were embedded in paraffin according to standard methods. Sections were cut and stained by a hematoxylin-eosin solution for light microscopy.

SS cells [5] = test: Effect of compounds on homozygous sickle red blood cell size (MCV); type: cell-based, human; conditions: for changes in cell volumes of SS cells: 1, 2, and 5 mM compound
Experimental: To study the effect of the compounds on the degree of hydration/dehydration of SS cells, the compound-treated SS cells obtained in the preceding experiment (antisickling studies with SS cells) were evaluated with a Hemavet Cell Analyzer to determine the mean corpuscular volume (MCV).

HbS [6] = target: T1, HbS; test: HbS adduct formation, cation-exchange HPLC of hemolysate from compound-treated SS cells; type: cell-based; conditions: 5 mM compound, HPLC of hemolysate after incubation with SS cells
SS cells [7] = test: Oxygen equilibrium studies with homozygous sickle red blood cells; type: cell-based, human; conditions: 5 mM compound; for SS cells P50: SS cells 10% hematocrit; for SS cells ΔP50: treated minus control
Experimental: SS cells were suspended in PBS to a final hematocrit of 10%. […] A 40 uL aliquot of this suspension was added to 4 ml Hemox buffer and subjected to oxygen equilibrium analysis (37° C.) using a Hemox-Analyzer (TCS Scientific Corp., Southampton, Pa.) (Asakura, 1979).

patients with SCD = conditions: cited from earlier work; for clinical toxicity: human, in vivo
Hb [8] = target: T2, Hb; conditions: Schiff base with N-terminal Val1 of T state Hb; cited from earlier work
[9] = cited from earlier work
[10] = 5 mM compound, P50 of treated AA cells minus P50 of control
[11] = 5 mM compound, 4% oxygen, 10% hematocrit, 5 hrs

Cc1ccsc1C=O [3-Methyl-2-thiophenecarboxyaldehyde]
n50 (Hill coefficient at 50% saturation in the presence of compound) (AA cells): 2.35
ΔP50 = P50d − P50c (AA cells): −7.01 mmHg
P50d (value in the presence of compound) (AA cells): 21.55 mmHg and 20.63 mmHg

O=Cc1cc(Br)cs1 [4-Bromo-2-thiophenecarboxyaldehyde]
n50 (Hill coefficient at 50% saturation in the presence of compound) (AA cells): 2.41
ΔP50 = P50d − P50c (AA cells): −10.56 mmHg
P50d (value in the presence of compound) (AA cells): 16.85 mmHg and 17.49 mmHg

O=Cc1ccc(Br)s1 [5-Bromo-2-thiophenecarboxyaldehyde]
n50 (Hill coefficient at 50% saturation in the presence of compound) (AA cells): 2.35
ΔP50 = P50d − P50c (AA cells): −6.63 mmHg
P50d (value in the presence of compound) (AA cells): 21.96 mmHg and 20.24 mmHg

CCc1ccc(C=O)o1 [Compound 5EF, 5-Ethyl-2-furfuraldehyde]
n50 (Hill coefficient at 50% saturation) (AA cells; 5 mM compound): 1.77 ± 0.14
P50 (AA cells; 5 mM compound, 37° C.): 10.13 ± 0.75 mmHg
ΔP50 (AA cells; [10]): −15.71 mmHg
predicted antisickling activities (SS cells [1]): lie between those of FUF and 5HMF

O=Cc1ccc(CO)o1 [Compound 5HMF, 5-hydroxymethyl-2-furfuraldehyde]
Hemolysate P50 (HbS [2]): 1.8 ± 0.3 mmHg
Hemolysate ΔP50 (HbS [2]): −9.4 mmHg
inhibition of cell sickling, times more than FUF (SS cells [3]; 5 mM): ~2.5 times
Inhibition of sickling of SS cells (SS cells [3]; [11]): 90%
Sickling of SS cells (SS cells [3]; [11]): 10%
n50 (Hill coefficient at 50% saturation) (AA cells; 1 mM compound): 2.08 ± 0.14
ΔP50 (AA cells; 1 mM compound): −6.65 mmHg
P50 (AA cells; 1 mM compound): 19.19 ± 1.51 mmHg
n50 (Hill coefficient at 50% saturation) (AA cells; 2 mM compound): 1.98 ± 0.08
ΔP50 (AA cells; 2 mM compound): −10.80 mmHg
P50 (AA cells; 2 mM compound): 15.04 ± 0.51 mmHg
n50 (Hill coefficient at 50% saturation) (AA cells; 5 mM compound): 1.88 ± 0.06
P50 (AA cells; 5 mM compound, 37° C.): 8.32 ± 0.40 mmHg
ΔP50 (AA cells; [10]): −17.52 mmHg
effect on the OEC of whole blood (AA cells): able to shift the OEC to the left
compound binding in T state co-crystals (Hb [4]): only weak binding
percentage of sickled cells in the arterial blood (Tg sickle mice; 5HMF 100 mg/kg): reduced the formation of POSCs; also recorded: reduced the percentage of sickled cells
survival of more than half of the mice (Tg sickle mice; 5HMF pretreatment): > 25 min
survival time under hypoxia compared to control (Tg sickle mice; 5HMF pretreatment): significantly prolonged the survival time; also recorded: prolonged the survival time significantly; also recorded: about four times longer
MCV (SS cells [5]; 1 mM compound): 62.5 fL
MCV (SS cells [5]; 2 mM compound): 61.0 fL
MCV (SS cells [5]; 5 mM compound): 61.4 fL
changes in cell volumes of SS cells (SS cells [5]): did not result in changes in cell volumes
HbS adduct (HbS [6]): 70% and 70 ± 10.0%
SS cells P50 (SS cells [7]): 6.0 ± 1.2 mmHg
SS cells ΔP50 (SS cells [7]): −25.2 mmHg
Inhibition of sickling of SS cells (SS cells [1]; 1 mM compound, 4% oxygen): 13%
Sickling of SS cells (SS cells [1]; 1 mM compound, 4% oxygen): 87%
Inhibition of sickling of SS cells (SS cells [1]; 2 mM compound, 4% oxygen): 42%
Sickling of SS cells (SS cells [1]; 2 mM compound, 4% oxygen): 58%

Cc1ccc(C=O)o1 [Compound 5MF, 5-Methyl-2-furfuraldehyde]
n50 (Hill coefficient at 50% saturation) (AA cells; 5 mM compound): 1.70 ± 0.06
P50 (AA cells; 5 mM compound, 37° C.): 9.68 ± 0.24 mmHg
ΔP50 (AA cells; [10]): −16.16 mmHg
predicted antisickling activities (SS cells [1]): lie between those of FUF and 5HMF

O=Cc1c(O)cccc1OCCCCC(=O)O [Compound 12C79]
clinical toxicity (patients with SCD): clinically non-toxic
compound-Hb adducts (patients with SCD; intravenous infusion 40 mg/kg, patients with SCD): more than 30%

Cc1cc(C=O)cc(C)c1O [DMHB, 3,5-dimethyl-4-hydroxybenzaldehyde]
shift of the OEC (Hb [8]): shift the OEC toward the left

O=Cc1ccc(O)c(C(=O)O)c1 [FSA, 5-formylsalicylic acid]
shift of the OEC (Hb [8]): shift the OEC toward the right

O=Cc1ccco1 [FUF, 2-furfuraldehyde]
Hemolysate P50 (HbS [2]): 5.3 ± 0.6 mmHg
Hemolysate ΔP50 (HbS [2]): −5.9 mmHg
Sickling of SS cells (SS cells [3]; [11]): 70%
inhibition at 5000 µM (SS cells [3]; [11]): 30%
n50 (Hill coefficient at 50% saturation) (AA cells; 5 mM compound): 2.30 ± 0.01
P50 (AA cells; 5 mM compound, 37° C.): 14.49 ± 0.06 mmHg
ΔP50 (AA cells; [10]): −11.35 mmHg
compound binding in T state co-crystals (Hb [4]): only weak binding
MCV (SS cells [5]; 1 mM compound): 60.3 fL
MCV (SS cells [5]; 2 mM compound): 60.0 fL
MCV (SS cells [5]; 5 mM compound): 62.8 fL
changes in cell volumes of SS cells (SS cells [5]): did not result in changes in cell volumes
HbS adduct (HbS [6]): 24% and 24 ± 5.7%
SS cells P50 (SS cells [7]): 15.4 ± 1.7 mmHg
SS cells ΔP50 (SS cells [7]): −15.8 mmHg
Sickling of SS cells (SS cells [1]; 1 mM compound, 4% oxygen): 100%
Sickling of SS cells (SS cells [1]; 2 mM compound, 4% oxygen): 100%
inhibition at 1000 µM (SS cells [1]; Homo sapiens, Erythrocyte, 1 mM compound, 4% oxygen, read-out: Inhibition of sickling of SS cells): 0%
inhibition at 2000 µM (SS cells [1]; Homo sapiens, Erythrocyte, 2 mM compound, 4% oxygen, read-out: Inhibition of sickling of SS cells): 0%

CCOC(=O)C1CSC(c2ccc(CO)o2)N1 (stereo not shown) [MSDD1, 5-hydroxymethyl-2-furfural-thiazolidine-4-carboxylic acid ethyl ester]
effect on the OEC of whole blood (AA cells): does not have effect on the OEC

COc1cc(C=O)ccc1O [Vanillin, vanillin, reference compound]
clinical toxicity (patients with SCD): clinically non-toxic
Sickling of SS cells (SS cells [3]; [11]): 80%
inhibition at 5000 µM (SS cells [3]; [11]): 20%
n50 (Hill coefficient at 50% saturation) (AA cells; 5 mM compound): 1.98 ± 0.23
P50 (AA cells; 5 mM compound, 37° C.): 19.06 ± 1.98 mmHg
ΔP50 (AA cells; [10]): −6.78 mmHg
MCV (SS cells [5]; 5 mM compound): 61.0 fL
SS cells P50 (SS cells [7]): 17.7 ± 2.2 mmHg
SS cells ΔP50 (SS cells [7]): −13.5 mmHg
acute oral LD50 ([9]; species not stated): 1580 mg/kg
LD50 ([9]; unit taken from the 5HMF value in the same sentence): 1580 mg/kg
